Data taken from patent US20260002124A1, “ENHANCING NEURONAL DIFFERENTIATION OF VENTRAL MIDBRAIN NEURAL PROGENITOR CELLS” (Novo Nordisk A/S, priority 2022, published 2026).
Several values for one entry are separate records, joined by “and”; a condition that tells them apart may be missing. Equal values may be shown once.

How the values were obtained:
Type in all cases: cell-based, human
[1] = tested on: ventral midbrain floor plate NSCs; experiment: Early in vitro administration of MEKi and/or NOTCHi (DIV16-22), flow cytometry marker expression
Description: (§1) hESCs were differentiated to ventral midbrain neurons according to an established protocol (Nolbrant et al., 2017; Kirkeby et al., 2017). In brief, hESC were grown to 70-90% confluency, then disassociated with 0.5 mM EDTA. The cells were seeded at 10^4 cells/cm^2 in cell culture flasks or plates coated with human laminin-111 (1.2 μg/cm^2; BioLamina) and immediately put into contact with differentiation media. The cells were exposed to N2-based media from days in vitro (DIV) 0-8; 50% DMEM/F12+Glutamax (Gibco), 50% Neurobasal (Gibco), 1% N2 supplement CTS (Thermo Fisher Scientific), 5% GlutaMAX (Thermo Fisher Scientific), 0.2% P-S (Thermo Fisher Scientific) and supplemented with SMAD inhibitors SB431542 (10 μM; Miltenyi Biotec), Noggin (100 ng/mL; Miltenyi Biotec) for neural induction, Sonic Hedgehog C24II (SHH; 500 ng/mL; Miltenyi Biotec) for ventral fate, GSK3B inhibitor CHIR99021 (CHIR; 0.5-0.6 μM; Miltenyi Biotec) to promote caudalization. N2-based media was supplemented with fibroblast growth factor 8b (FGF8b; 100 ng/mL; Miltenyi Biotec) from DIV9-11. At DIV11, the cells were dissociated with accutase (Thermo Fisher Scientific) and seeded at 0.8×10^6 cells/[…] in a cell culture flask or plate coated with human laminin-111 (1.2 μg/cm^2) in DIV11-16 media (Neurobasal, 2% B27 supplement without vitamin A CTS (Thermo Fisher Scientific), 5% GlutaMAX, 0.2% P-S and supplemented with FGF8b (100 ng/mL), L-ascorbic acid (AA; 200 μM; Sigma), human Brain Derived Neurotrophic Factor (BDNF; 20 ng/mL; Miltenyi Biotec)) supplemented with Y-27632 (Miltenyi Biotec) at 10 μM. At day in vitro (DIV) 16, the cells were dissociated with accutase and either cryopreserved, or re-seeded in cell culture flasks/plates coated with poly-L-ornithine (0.002%) and Laminin-521 (1.5 μg/cm^2) in B27 media supplemented with BDNF (20 ng/mL), GDNF (20 ng/mL), L-ascorbic acid (200 μM), dcAMP (500 μM), DAPT (10 μM), and Y-27632 (10 μM) for extended in vitro culture allowing further differentiation and maturation of ventral midbrain neural stem cells into neurons.
(§2) Ventral midbrain dopaminergic (vmDA) progenitor cells were generated from hESCs in 2D in vitro culture as described in Example 1 and using reagents described in Table 1. At various days after initiating the differentiation the cell culture was dissociated into a single cell suspension using Accutase, counted on a NucleoCounter NC-200 and collected in N2 media (CTS™ Neurobasal™ medium supplemented with 1% CTS™ N-2 supplement). Dead cells were labelled using a LIVE/DEAD™ Fixable Near-IR Dead Cell Stain Kit. The cells were then resuspended in B27 media (CTS™ Neurobasal™ medium supplemented with 1% B-27™ supplement without vitamin A, 2 mM GSutaMAX™, 60 U/mL Penicillin-Streptomycin, 10 μM ROCK inhibitor). Cells were then fixed and permeabilized using the BD Transcription Factor Buffer Set (BD Biosciences) according to the manufacturer's instructions. The fixed cells were then stained with fluorescently conjugated antibodies, and the samples acquired on a BD LSR Fortessa or B FACSymphony (BD Biosciences). The fcs files were exported and analyzed in FlowJo 10.5.03.
(§3) To determine whether a cell was considered positive in its protein expression of a marker, gates were set as routinely done in the field at the edge of the fluorescent signal of a negative control sample. Examples of negative control samples used included unstained controls, fluorescence minus one (FMO) controls and most preferably biological negative control samples; all cells present above these threshold gates when experimental samples were run were considered positive. Antibodies: FOXA2 (1:320, Miltenyi), OTX2 (1:320, Miltenyi), SOX2 (1:40, B), LMXTA (1:2500, Novo Nordisk production), […] (1:40, AtlasAntibodies), ASCL1 (1:2500, Mitlenyi), INA (1:3000, AtlasAntibodies). […]

[2] = tested on: ventral midbrain floor plate NSCs; experiment: Immunofluorescence staining after late administration and extended differentiation (DIV40); details: late administration; IF staining, extended differentiation DIV40
Description: (§4) Following compound administration and flow cytometry analysis performed in Figure, all groups were differentiated for a further 11 days in vitro and then were fixed in 4% paraformaldehyde and stained with DAPI to identify all cell nuclei and primary antibodies against SOX2 (1:300), Ki-67 (1:250), LMX1A (1:1000), tyrosine hydroxylase (TH; 1:500) and COL1A1 (1:300) followed by fluorescently labelled secondary antibodies. Images were acquired on an Olympus IX81 microscope using CellSens software. The immunofluorescence (IF) staining confirmed the flow cytometry results with extended differentiation showing that treatment with a NOTCHi alone reduced, compared to untreated controls, the amount of NSCs identified by SOX2 (FIG. 12A-D) and proliferative cells identified by KI67 (FIG. 13B,D) while maintaining the amount of neuronal cells identified by INA (FIG. 13A,C).
(§5) Cells were fixed in 4% paraformaldehyde (Alfa Aesar) for 10 minutes at room temperature. Unspecific antibody binding was blocked by incubating cells with PADT buffer; phosphate-buffered saline (PBS) without Ca2+ and Mg2+ (Gibco) with 0.02% sodium azide solution (Ampliqon), 0.5% Triton X-100 (Sigma), and 5% Donkey serum (Jackson Labs) for 30 minutes, followed by overnight incubation with primary antibodies (see Table X) at 4° C. The cells were washed 3 times with PBS without Ca2+ and Mg2+, blocked with PADT buffer for 15 minutes, and incubated with fluorophore-conjugated secondary antibodies (see Table X) for 2 hours at room temperature, protected from light. The cells were then counterstained with DAPI (10 μg/mL) for 5 minutes at room temperature, washed 3 times with PBS without Ca2+ and Mg2+, and stored at 4° C. in PBS without Ca2+ and Mg2+ supplemented with 0.02% sodium azide. Images were captured with a Zeiss Axio Observer microscope equipped with an Axiocam 512 camera and ZEN 3.2 (Pro) software (Zeiss).

[3] = tested on: ventral midbrain floor plate NSCs; experiment: Immunofluorescence staining after early administration and extended differentiation (DIV35); details: early administration; IF staining, extended differentiation DIV35
Description: as §4, with “FIGS. 2 and 3,” for “Figure,”, “(1:3000), INA (1:200),” for “(1:1000),”, “results of FIG. 3” for “results”, “4A-D)” for “12A-D)”, “5B,D)” for “13B,D)”, “5A,C).” for “13A,C).”
as §5

[4] = tested on: VM NPCs; experiment: FCM profile of VM neural cells at DIV22 after earlier NOTCHi treatment DIV16-22
Description: as §1, §2, §3

[5] = tested on: ventral midbrain floor plate NSCs; experiment: Late in vitro administration of MEKi and/or NOTCHi (DIV22-29), FCM/ICC marker expression
Description: as §1, §2, §3

[6] = early treatment DIV16-22, % of total viable cells, replicates #1-#4
[7] = early treatment, result in words
[8] = DIV22 after NOTCHi (DAPT) DIV16-22 every 48-72 hrs, flow cytometry, replicates #1-#11
[9] = DIV22 after NOTCHi DIV16-22, Mean of #1-#11
[10] = late administration DIV22-29, FCM/ICC, % of total cells, replicates #1-#4
[11] = late administration, result in words

In the case of C[C@H](NC(=O)Cc1cc(F)cc(F)c1)C(=O)NC(C(=O)OC(C)(C)C)c1ccccc1 (stereo partly shown) [NOTCHi], the FOXA2 expressing cells [1, 6] is reported as 85.3% and 72.4% and 93.2%, the “Ki67 expressing cells (proliferative marker)” value [1, 6] is reported as 16.6% and 18.6% and 17.7% and the LMX1A expressing cells [1, 6] is reported as 88.4% and 77.2% and 94.5%. The “SOX2 expressing cells (NSC marker)” value [1, 6] was 59.6% and 57.3% and 65.7%, the “expression of NSC marker SOX2 compared to controls” value [1, 7] was “downregulated” and the “expression of proliferative marker KI67 compared to controls” value [1, 7] was “downregulated”. For the same molecule, the “amount of NSCs identified by SOX2 compared to untreated controls” value [2] was “reduced”, the “amount of neuronal cells identified by INA” value [2] was “maintaining” and the “expression of ventral midbrain lineage marker LMX1A” value [2] was “did not prevent”. The “formation of dopamine neurons (TH)” value [2] was “did not prevent”, the “proliferative cells identified by KI67 compared to untreated controls” value [2] was “reduced” and the “proportion of stromal COL1A1 cells compared to control untreated cultures” value [2] was “dramatically reduced”. For the same molecule, the “amount of NSCs identified by SOX2 compared to untreated controls” value [3] was “reduced”, the “amount of neuronal cells identified by INA” value [3] was “maintaining” and the “expression of ventral midbrain lineage marker LMX1A” value [3] was “did not prevent”. For the same molecule, the “formation of dopamine neurons (TH)” value [3] was “did not prevent”, the “proliferative cells identified by KI67 compared to untreated controls” value [3] was “reduced” and the “proportion of stromal COL1A1 cells compared to control untreated cultures” value [3] was “dramatically reduced”. For the same molecule, the ASCL1 expressing cells [4, 8] was 41.1% and 41.7% and 45.8% and 16.2% and 17.3% and 25.6% and 50.4% and 57.1% and 40.5% and 51.8% and 36.0%, the FOXA2 expressing cells [4, 8] was 69.7% and 76.2% and 82.7% and 78.0% and 75.5% and 35.2% and 85.4% and 98.2% and 82.1% and 94.9% and 67.6% and the INA expressing cells [4, 8] was 30.5% and 19.2% and 22.4% and 13.8% and 13.3% and 32.0% and 23.6% and 34.2% and 19% and 45.6% and 18.3%. For the same molecule, the “INA+/SOX2− cells” value [4, 8] was 13.8% and 4.7% and 6.2% and 2.6% and 5.0% and 6.0% and 7.3% and 13.6% and 5.7% and 20.1% and 7.0%, the Ki67 expressing cells [4, 8] was 6.4% and 8.1% and 9.7% and 7.8% and 5.2% and 19.8% and 5.9% and 4.8% and 6.0% and 6.6% and 6.1% and the SOX2 expressing cells [4, 8] was 70.9% and 86.3% and 88.3% and 77.2% and 78.5% and 76.4% and 72% and 70.5% and 64.7% and 65.7% and 69.5%. For the same molecule, the “ASCL1 expressing cells, Mean” value [4, 9] was 38.5%, the “FOXA2 expressing cells, Mean” value [4, 9] was 76.9% and the “INA expressing cells, Mean” value [4, 9] was 24.7%. The “INA+/SOX2− cells, Mean” value [4, 9] was 8.4%, the “Ki67 expressing cells, Mean” value [4, 9] was 7.9% and the “SOX2 expressing cells, Mean” value [4, 9] was 74.5%. The FOXA2 expressing cells [5, 10] was 81.8% and 90.2% and 68% and 92.2%, the “INA expressing cells (neuronal marker)” value [5, 10] was 35.4% and 61.5% and 74.1% and the “Ki67 expressing cells (proliferative marker)” value [5, 10] was 21.3% and 1.65% and 3.87% and 2.98%. For the same molecule, the LMX1A expressing cells [5, 10] was 95.4% and 75.4% and 91.8%, the “SOX2 expressing cells (NSC marker)” value [5, 10] was 62.1% and 21.9% and 63.7% and 43.6% and the “expression of NSC marker SOX2 compared to controls” value [5, 11] was “downregulated”. The “expression of proliferative marker KI67 compared to controls” value [5, 11] was “downregulated”.
